*1 amine or outer side, *2 acyl side, *3 side chain or, on linkers, in order; H or OH if unused. Where a SMILES comes first, the peptide text is derived from it. Bridges are numbered along the chain shown (N, C = ends). Roman numbers before positions name the chains, in order. [ ]: non-standard residue; d: D form. Actinocin(1to9) = Cc1c2oc3c(C)ccc(C(=O)[*:2])c3nc-2c(C(=O)[*:1])c(N)c1=O; NMeV = CN[C@H](C(=O)O)C(C)C; Sar = CNCC(=O)O
Key:
Format in all cases: functional
Settings in all cases: read-out: ED50 (the source's name)
KB = test: Cytotoxicity against human KB cells by tetrazolium salt-based colorimetric assay
HCT-8 = test: Cytotoxicity against human HCT8 cells by tetrazolium salt-based colorimetric assay
TE-671 = test: Cytotoxicity against human TE671 cells by tetrazolium salt-based colorimetric assay
A549 = test: Cytotoxicity against human A549 cells by tetrazolium salt-based colorimetric assay
[1] = Cytotoxicity against human […] cells by tetrazolium salt-based colorimetric assay

| Structure (SMILES) | EC50 (KB) [µg/mL] | EC50 (HCT-8) [µg/mL] | EC50 (TE-671) [µg/mL] | EC50 (A549) [µg/mL] | EC50 [1] [µg/mL] |
| --- | --- | --- | --- | --- | --- |
| O=C1O[C@H]([C@@H]2OC(=O)c3cc(O)c(O)c(O)c3-c3c(O)c(O)c4oc(=O)c5c(c(O)c(O)c6oc(=O)c3c4c65)-c3c(cc(O)c(O)c3O)C(=O)OC[C@H]2O)[C@@H]2OC(=O)c3c(c(O)c(O)c(O)c3[C@H]2O)-c2c1cc(O)c(O)c2O [PUNICACORTEIN C] | > 10 | > 10 | > 10 | > 10 | 3.86 |
| O=C(OC[C@H]1O[C@@H](OC(=O)c2cc(O)c(O)c(O)c2)[C@H](O)[C@@H](O)[C@@H]1OC(=O)c1cc(O)c(O)c(O)c1)c1cc(O)c(O)c(O)c1 | > 10 | > 10 | > 10 | > 10 | > 10 |
| Oc1cc(O)c2c(c1)O[C@H](c1ccc(O)c(O)c1)[C@H](O)[C@H]2c1c(O)cc(O)c2c1O[C@H](c1ccc(O)c(O)c1)[C@H](O)[C@H]2c1c(O)cc(O)c2c1O[C@H](c1ccc(O)c(O)c1)[C@H](O)C2 [PROCYANIDIN C1] | > 10 | > 10 | > 10 | > 10 | > 10 |
| O=C(O[C@H]1[C@H](O)C[C@](O)(C(=O)O)C[C@H]1O)c1cc(O)c(O)c(O)c1 | > 10 | > 10 | > 10 | > 10 | > 10 |
| O=C(O[C@@H]1C[C@](O)(C(=O)O)C[C@@H](OC(=O)c2cc(O)c(O)c(O)c2)[C@H]1OC(=O)c1cc(O)c(O)c(O)c1)c1cc(O)c(O)c(O)c1 | > 10 | > 10 | > 10 | > 10 | > 10 |
| O=C(OC[C@H]1OC(O)[C@@](O)(COC(=O)c2cc(O)c(O)c(O)c2)[C@@H]1OC(=O)c1cc(O)c(O)c(O)c1)c1cc(O)c(O)c(O)c1 (stereo partly specified) | > 10 | > 10 | > 10 | > 10 | > 10 |
| O=C1O[C@H]2[C@H](O)[C@@H](OC(=O)c3cc(O)c(O)c4c3[C@@H]3C1=CC(=O)C(O)(O)C3(O)O4)[C@H](OC(=O)c1cc(O)c(O)c(O)c1)O[C@@H]2CO (stereo partly specified) [FUROSIN] | > 10 | > 10 | > 10 | > 10 | 0.67 |
| O=C(O)C1=C[C@@H](O)[C@@H](O)[C@H](OC(=O)c2cc(O)c(O)c(O)c2)C1 | > 10 | > 10 | > 10 | > 10 | > 10 |
| Oc1cc(O)c2c(c1)O[C@@]1(c3ccc(O)c(O)c3)Oc3cc(O)c4c(c3[C@@H]2[C@H]1O)O[C@H](c1ccc(O)c(O)c1)[C@H](O)C4 [PROANTHOCYANIDIN A2] | > 10 | > 10 | > 10 | > 10 | 5.5 |
| Oc1cc(O)c2c(c1)O[C@H](c1ccc(O)c(O)c1)[C@H](O)C2 [(-)-EPICATECHIN] | > 10 | > 10 | > 10 | > 10 | > 10 |
| Oc1cc(O)c2c(c1)O[C@@]1(c3ccc(O)c(O)c3)Oc3cc(O)c4c(c3[C@@H]2[C@H]1O)O[C@H](c1ccc(O)c(O)c1)[C@H](O)[C@H]4c1c(O)cc(O)c2c1O[C@H](c1ccc(O)c(O)c1)[C@H](O)C2 [CINNAMTANNIN B1] | > 10 | > 10 | > 10 | > 10 | 3.57 |
| Oc1cc(O)c2c(c1)O[C@H](c1ccc(O)c(O)c1)[C@H](O)[C@H]2c1c(O)cc(O)c2c1O[C@@]1(c3ccc(O)c(O)c3)Oc3cc(O)c4c(c3[C@@H]2[C@H]1O)O[C@H](c1ccc(O)c(O)c1)[C@H](O)[C@H]4c1c(O)cc(O)c2c1O[C@H](c1ccc(O)c(O)c1)[C@H](O)C2 [CINNAMTANNIN B2] | > 10 | > 10 | > 10 | > 10 | 0.66 |
| O=C(O[C@@H]1C[C@](OC(=O)c2cc(O)c(O)c(O)c2)(C(=O)O)C[C@@H](OC(=O)c2cc(O)c(O)c(O)c2)[C@H]1OC(=O)c1cc(O)c(O)c(O)c1)c1cc(O)c(O)c(O)c1 | > 10 | > 10 | > 10 | > 10 | 0.43 |
| O=C(O[C@@H]1O[C@@H]2COC(=O)c3cc(O)c(O)c(O)c3-c3c(cc(O)c(O)c3O)C(=O)O[C@H]([C@H]1O)[C@@H]2O)c1cc(O)c(O)c(O)c1 [CORILAGIN] | > 10 | > 10 | > 10 | > 10 | > 10 |
| O=C(OC[C@H]1O[C@@H](O)[C@H](OC(=O)c2cc(O)c(O)c(O)c2)[C@@H](OC(=O)c2cc(O)c(O)c(O)c2)[C@@H]1OC(=O)c1cc(O)c(O)c(O)c1)c1cc(O)c(O)c(O)c1 | > 10 | > 10 | > 10 | > 10 | > 10 |
| Oc1cc(O)c2c(c1)O[C@H](c1ccc(O)c(O)c1)[C@@H](O)C2 [CIANIDANOL] | > 10 | > 10 | > 10 | > 10 | > 10 |
| O=C(O[C@@H]1COC(=O)c2cc(O)c(O)c(O)c2-c2c(cc(O)c(O)c2O)C(=O)O[C@H]1[C@@H]1OC(=O)c2cc(O)c(O)c(O)c2-c2c(O)c(O)c(O)c3c2C(=O)O[C@H]1[C@@H]3O)c1cc(O)c(O)c(O)c1 [CASUARININ] | > 10 | > 10 | > 10 | > 10 | 2.24 |
| O=C1O[C@H]2[C@H](OC(=O)c3cc(O)c(O)c(O)c3)[C@@H](OC(=O)c3cc(O)c(O)c4c3[C@@H]3C1=CC(=O)C(O)(O)C3(O)O4)[C@H](OC(=O)c1cc(O)c(O)c(O)c1)O[C@@H]2COC(=O)c1cc(O)c(O)c(O)c1 (stereo partly specified) [TERCHEBIN] | > 10 | > 10 | > 10 | > 10 | > 10 |
| O=C(O[C@@H]1O[C@@H]2COC(=O)c3cc(O)c(O)c(O)c3-c3c(cc(O)c(O)c3O)C(=O)O[C@H]2[C@H](OC(=O)c2cc(O)c(O)c(O)c2)[C@H]1OC(=O)c1cc(O)c(O)c(O)c1)c1cc(O)c(O)c(O)c1 [EUGENIIN] | > 10 | > 10 | > 10 | > 10 | 2.74 |
| O=C(O[C@H]1[C@H](O)C[C@](O)(C(=O)O)C[C@H]1OC(=O)c1cc(O)c(O)c(O)c1)c1cc(O)c(O)c(O)c1 | > 10 | > 10 | > 10 | > 10 | 0.53 |
| O=C(OC[C@H]1OC(O)[C@@](O)(COC(=O)c2cc(O)c(O)c(O)c2)[C@@H]1O)c1cc(O)c(O)c(O)c1 (stereo partly specified) [HAMAMELITANNIN] | > 10 | > 10 | > 10 | > 10 | > 10 |
| O=C(OC[C@H]1O[C@@H](OC(=O)c2cc(O)c(O)c(O)c2)[C@H](OC(=O)c2cc(O)c(O)c(O)c2)[C@@H](O)[C@@H]1O)c1cc(O)c(O)c(O)c1 | > 10 | > 10 | > 10 | > 10 | > 10 |
| O=C(O[C@@H]1O[C@@H]2COC(=O)c3cc(O)c(O)c(O)c3-c3c(cc(Oc4c(C(=O)O)cc(O)c(O)c4O)c(O)c3O)C(=O)O[C@H]([C@H]1O)[C@@H]2O)c1cc(O)c(O)c(O)c1 [MALLOTINIC ACID] | > 10 | > 10 | > 10 | > 10 | > 10 |
| O=C1OC[C@H]2OC(=O)c3cc(O)c(O)c(O)c3-c3c(O)c(O)c(O)c4c3C(=O)O[C@H]([C@H]3OC(=O)C5C4=C(O)C(=O)C54Oc5cc(O)c6c(c5[C@H]34)O[C@H](c3ccc(O)c(O)c3)[C@@H](O)C6)[C@@H]2OC(=O)c2cc(O)c(O)c(O)c2-c2c1cc(O)c(O)c2O [MONGOLICAIN A] | > 10 | > 10 | > 10 | > 10 | > 10 |
| O=C1OCC2OC(=O)c3cc(O)c(O)c(O)c3-c3c(O)c(O)c(O)c4c3C(=O)OC(C2OC(=O)c2cc(O)c(O)c(O)c2-c2c1cc(O)c(O)c2O)C1OC(=O)c2c-4c(O)c(O)c(O)c2C1O (stereo unspecified) [VESCALAGIN] | > 10 | > 10 | > 10 | > 10 | 0.58 |
| Oc1cc(O)c2c(c1)O[C@H](c1ccc(O)c(O)c1)[C@H](O)[C@H]2c1c(O)cc(O)c2c1O[C@H](c1ccc(O)c(O)c1)[C@H](O)C2 [PROCYANIDIN B2] | > 10 | > 10 | > 10 | > 10 | > 10 |
| O=C(O)C[C@@H]1C(=O)O[C@H]2[C@@H]3OC(=O)c4cc(O)c(O)c(O)c4-c4c(cc(O)c(O)c4O)C(=O)OC[C@H]2O[C@@H](OC(=O)c2cc(O)c(O)c(O)c2)[C@@H]3OC(=O)c2cc(O)c(O)c3c2[C@H]1[C@H](O)C(=O)O3 [CHEBULAGIC ACID] | > 10 | > 10 | > 10 | > 10 | 0.8 |
| O=C1O[C@H]2[C@H](O)[C@@H](CO)OC(O)[C@@H]2OC(=O)c2cc(O)c(O)c(O)c2-c2c1cc(O)c(O)c2O (stereo partly specified) | > 10 | > 10 | > 10 | > 10 | > 10 |
| O=C1O[C@@H]2[C@@H](OC(=O)c3cc(O)c(O)c(O)c3-c3c1cc(O)c(O)c3O)[C@H](O)O[C@@H]1COC(=O)c3cc(O)c(O)c(O)c3-c3c(O)c(O)c4oc(=O)c5c(c(O)c(O)c6oc(=O)c3c4c65)-c3c(cc(O)c(O)c3O)C(=O)O[C@@H]21 [PUNICALAGIN] | > 10 | > 10 | > 10 | > 10 | > 10 |
| Cc1c2oc3c(C)ccc(C(=O)N[C@@H]4C(=O)N[C@H](C(C)C)C(=O)N5CCC[C@H]5C(=O)N(C)CC(=O)N(C)[C@@H](C(C)C)C(=O)O[C@@H]4C)c3nc-2c(C(=O)N[C@@H]2C(=O)N[C@H](C(C)C)C(=O)N3CCC[C@H]3C(=O)N(C)CC(=O)N(C)[C@@H](C(C)C)C(=O)O[C@@H]2C)c(N)c1=O [DACTINOMYCIN] (I: T[dV]P[Sar][NMeV] / II: T[dV]P[Sar][NMeV]; ester I:1-I:C, II:1-II:C; linker I:N-II:N via Actinocin(1to9)) |  |  |  |  | < 0.01 |
